For 19 compounds, IC50 results are on record in patent US20240217951A1, “PCSK9 INHIBITORS AND METHODS OF USE THEREOF” (AstraZeneca AB, priority 2022, published 2024).

The target of one experiment is PCSK9 (Homo sapiens, UniProt Q8NBP7, G670E/V474I). Briefly: biochemical.
The target in experiment [1] is T1, potassium ion channel hERG (human Ether-á-go-go-Related Gene) (Homo sapiens, UniProt Q12809).
T1 construct: expressed in transfected cells; host or cells: Chinese hamster ovary K1 (CHO)
Briefly: Assay 5 - hERG assay (SyncroPatch 384PE patch clamp, CHO cells). The note with it: geometric mean; CHO cells over-expressing hERG; read-out: Assay 5 (hERG Hu CHO IF EPh CR-Syncro) GMean IC50. The class given is cell-based. As for the experimental part:
Assay 5—hERG Assay (Human Ether-á-go-go-Related Gene)
This assay (human Ether-á-go-go-Related Gene) measures activity of the compounds at the potassium ion channel hERG (human Ether-á-go-go-Related Gene).
Experiments were performed on the SyncroPatch 384PE high throughput patch clamp platform at room temperature and medium resistance chips with 4 patch holes per site. Chinese hamster ovary K1 (CHO) cell lines over-expressing the ion channel of choice (hERG) were used in assay-ready format and kept in liquid nitrogen or were used from live culture. Cells were either thawed and diluted in HBSS or were detached from flasks and resuspended in HBSS. HBSS comprised 140 mM NaCl, 4 mM KCl, 10 mM HEPES and 5 mM Glucose (pH7.4). The internal patch clamp solution was KF 120 mM, KCl 20 mM, HEPES 10 mM, EGTA 10 mM, and 25 PM Escin (pH 7.2). After the sealing process was complete, the external solution was exchanged for external patch clamp solution comprising NaCl 80 mM, KCl 4 mM, HEPES 10 mM, CaCl2 2 mM, MgCl2 1 mM, glucose 5 mM, and NMDG 60 mM (pH 7.4). All solutions were stored at room temperature, except Escin, which was stored at 4° C. All test compounds were dispensed in greiner-bio 384 well plates and tested in a 6 point cumulative assay (final DMSO concentration 0.33%). Only wells that passed previously agreed acceptance criteria for this platform were used in this analysis (30 MegaOhm seal resistance, Z prime >0.4 and current size >0.2 nA).

For experiment [2], the target named is GSK3β (Glycogen synthase kinase-3 beta) (Homo sapiens, UniProt P49841). Briefly: Assay 6 - GSK3β assay (ThermoFisher Z-Lyte). The note with it: geometric mean; ATP Conc: 10 μM; read-out: Assay 6 (GSK3β FRET-Z-Lyte CR) GMean IC50 (μM) ATP Conc: 10. The class given is biochemical. As for the experimental part: Assay 6—GSK3β Assay (ThermoFisher Assay)
GSK3β (Glycogen synthase kinase-3 beta), sequence (P49841 whole entry): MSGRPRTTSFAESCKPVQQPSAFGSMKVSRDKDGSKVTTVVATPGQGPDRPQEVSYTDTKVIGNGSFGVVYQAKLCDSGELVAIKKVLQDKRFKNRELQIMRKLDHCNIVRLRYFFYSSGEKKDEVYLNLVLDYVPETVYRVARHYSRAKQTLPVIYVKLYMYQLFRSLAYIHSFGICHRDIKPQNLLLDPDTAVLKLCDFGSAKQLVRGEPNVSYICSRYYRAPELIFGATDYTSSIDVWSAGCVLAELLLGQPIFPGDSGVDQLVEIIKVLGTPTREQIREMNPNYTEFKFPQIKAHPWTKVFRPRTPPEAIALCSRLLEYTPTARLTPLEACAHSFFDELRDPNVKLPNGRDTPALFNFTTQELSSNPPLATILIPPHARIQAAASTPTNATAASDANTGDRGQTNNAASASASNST
This assay measures the activity of the compounds at GSK3β (Glycogen synthase kinase-3 beta).
The test compounds were screened in 1% DMSO (final) in the well. For 10 point titrations, 3-fold serial dilutions are conducted from the starting concentration of 10 μM.
Bar-coded Corning, low volume NBS, black 384-well plate • 1. 2.5 μL—4× Test Compound or 100 nL 100× plus 2.4 μL kinase buffer • 2. 5 μL—2× Peptide/Kinase Mixture • 3. 2.5 μL—4×ATP Solution • 4. 30-second plate shake • 5. 60-minute Kinase Reaction incubation at room temperature • 6. 5 μL—Development Reagent Solution • 7. 30-second plate shake • 8. 60-minute Development Reaction incubation at room temperature • 9. Read on fluorescence plate reader and analyse the data
In step 2, the 2×GSK3β (GSK3 beta)/Ser/Thr (Glycogen synthase kinase-3 beta/Serine/Threonine) 09 mixture is prepared in 50 mM HEPES (4-(2-hydroxyethyl)-1-piperazineethanesulfonic acid) pH 7.5, 0.01% BRIJ-35, 10 mM MgCl2, 1 mM EGTA (egtazic acid). The final 10 μL Kinase Reaction consists of 0.22-0.92 ng GSK3β (GSK3 beta) and 2 μM Ser/Thr 09 in 50 mM HEPES pH 7.5, 0.01% BRIJ-35, 10 mM MgCl2, 1 mM EGTA.
In step 3 the ATP Solution is diluted to a 4× working concentration in Kinase Buffer (50 mM HEPES pH 7.5, 0.01% BRIJ-35, 10 mM MgCl2, 1 mM EGTA).
In Step 6 the Development Reagent is diluted 1:512 in Development Buffer (10× Novel PKC Lipid Mix: 2 mg/mL Phosphatidyl Serine, 0.2 mg/mL DAG in 20 mM HEPES, pH 7.4, 0.3% CHAPS).
SelectScreen® Kinase Profiling Service uses XLfit from IDBS. The dose response curve is curve fit to model number 205 (sigmoidal dose-response model).

In general, IC50 refers to the concentration that gives 50% inhibition.

PCSK9, sequence (Q8NBP7 with tags, fused parts or gaps V474I/G670E): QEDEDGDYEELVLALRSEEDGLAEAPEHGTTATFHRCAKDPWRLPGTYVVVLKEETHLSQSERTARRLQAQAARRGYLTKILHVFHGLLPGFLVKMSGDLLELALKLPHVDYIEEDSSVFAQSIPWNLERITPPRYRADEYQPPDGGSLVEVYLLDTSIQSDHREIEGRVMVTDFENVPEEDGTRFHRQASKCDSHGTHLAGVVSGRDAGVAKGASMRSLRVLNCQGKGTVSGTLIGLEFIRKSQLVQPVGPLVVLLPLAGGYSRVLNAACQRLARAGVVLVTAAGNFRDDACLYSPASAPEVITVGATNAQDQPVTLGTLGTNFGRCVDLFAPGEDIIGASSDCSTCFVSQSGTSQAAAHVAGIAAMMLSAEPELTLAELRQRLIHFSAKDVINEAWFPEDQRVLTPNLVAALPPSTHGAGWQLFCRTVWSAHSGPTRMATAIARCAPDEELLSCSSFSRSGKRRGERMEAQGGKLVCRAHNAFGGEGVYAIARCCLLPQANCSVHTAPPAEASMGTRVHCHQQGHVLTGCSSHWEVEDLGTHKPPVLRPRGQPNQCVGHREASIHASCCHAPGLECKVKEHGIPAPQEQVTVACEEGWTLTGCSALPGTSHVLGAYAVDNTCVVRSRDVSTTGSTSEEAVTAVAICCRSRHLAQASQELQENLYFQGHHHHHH
T1 sequence (Q12809 whole entry): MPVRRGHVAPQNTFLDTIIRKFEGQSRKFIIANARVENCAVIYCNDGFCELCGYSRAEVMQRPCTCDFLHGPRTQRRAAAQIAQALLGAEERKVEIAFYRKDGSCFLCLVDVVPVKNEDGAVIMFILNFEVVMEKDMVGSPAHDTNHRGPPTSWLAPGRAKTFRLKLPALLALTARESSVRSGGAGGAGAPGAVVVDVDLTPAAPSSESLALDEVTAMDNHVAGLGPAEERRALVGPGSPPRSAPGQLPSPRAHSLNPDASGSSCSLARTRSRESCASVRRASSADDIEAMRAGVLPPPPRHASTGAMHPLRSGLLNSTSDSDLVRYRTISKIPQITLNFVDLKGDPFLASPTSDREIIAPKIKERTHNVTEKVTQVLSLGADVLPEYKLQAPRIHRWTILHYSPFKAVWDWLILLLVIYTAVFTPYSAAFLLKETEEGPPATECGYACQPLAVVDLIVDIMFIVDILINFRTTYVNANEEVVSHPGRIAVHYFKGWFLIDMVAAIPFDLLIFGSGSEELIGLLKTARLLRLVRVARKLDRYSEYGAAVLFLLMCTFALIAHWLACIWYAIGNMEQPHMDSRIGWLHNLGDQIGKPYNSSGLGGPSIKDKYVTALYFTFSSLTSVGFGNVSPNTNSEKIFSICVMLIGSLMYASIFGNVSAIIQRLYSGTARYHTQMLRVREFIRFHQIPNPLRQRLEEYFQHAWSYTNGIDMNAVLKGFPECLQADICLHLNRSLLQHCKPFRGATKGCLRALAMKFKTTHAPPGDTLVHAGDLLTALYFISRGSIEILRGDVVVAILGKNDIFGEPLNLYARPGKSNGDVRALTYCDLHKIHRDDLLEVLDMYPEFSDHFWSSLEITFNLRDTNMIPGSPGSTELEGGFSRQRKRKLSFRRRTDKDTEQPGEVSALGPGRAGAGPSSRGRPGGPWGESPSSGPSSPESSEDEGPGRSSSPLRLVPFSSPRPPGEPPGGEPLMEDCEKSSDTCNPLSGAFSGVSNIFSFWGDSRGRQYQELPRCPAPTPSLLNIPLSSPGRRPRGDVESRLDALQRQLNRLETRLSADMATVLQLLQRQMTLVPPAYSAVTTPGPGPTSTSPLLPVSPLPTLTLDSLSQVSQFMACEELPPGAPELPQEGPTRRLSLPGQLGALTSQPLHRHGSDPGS

For `COc1cccn(-c2ccc(N[C@H]3CC[C@H](Nc4cnc(C)cn4)C3)nc2)c1=O` (single isomer, unassigned) [Example 171], the IC50 at PCSK9 was 0.602 µM; in experiment [1] it was over 40.1 µM; in experiment [2], 2.1 µM.

Turning to `CNC(=O)c1cnc(N[C@H]2CC[C@H](Nc3ccc(-n4cccc(OC)c4=O)cn3)C2)cn1` (stereo in doubt) [Example 150, 5-(((1S,3S)-3-((3-Methoxy-2-oxo-2H-[1,3′-bipyridin]-6′-yl)amino)cyclopentyl)amino)-N-methylpyrazine-2-carboxamide], the results for the IC50 (against PCSK9; in experiment [1]; in experiment [2]) were 8.7 µM, over 40.1 µM and over 10 µM, respectively.

`Cn1ccc2nc(N[C@H]3CC[C@H](Nc4ccc(-n5ccccc5=O)cn4)C3)cnc21` [Example 7, 6′-(((1S,3S)-3-((5-Methyl-5H-pyrrolo[2,3-b]pyrazin-2-yl)amino)cyclopentyl)amino)-2H-[1,3′-bipyridin]-2-one]: the IC50 at PCSK9 is 3.5 µM; in experiment [1], over 40 µM; in experiment [2], over 10 µM.

On to `Cn1ccc2ncc(N[C@H]3CC[C@H](Nc4ccc(-n5ccccc5=O)cn4)C3)nc21` [Example 8, 6′-(((1S,3S)-3-((5-Methyl-5H-pyrrolo[2,3-b]pyrazin-3-yl)amino)cyclopentyl)amino)-2H-[1,3′-bipyridin]-2-one], for which the results for the half-inhibitory concentration (IC50) (against PCSK9; in experiment [1]; in experiment [2]) were 0.257 µM, over 40 µM and over 10 µM, respectively.

`Cn1ncc2ncc(N[C@H]3CC[C@H](Nc4ccc(-n5ccccc5=O)cn4)C3)nc21` [Example 9, 6′-(((1S,3S)-3-((1-Methyl-1H-pyrazolo[3,4-b]pyrazin-6-yl)amino)cyclopentyl)amino)-2H-[1,3′-bipyridin]-2-one]: the IC50 against PCSK9 was 0.677 µM; in experiment [1] it was over 40 µM; in experiment [2], 5.6 µM.

Regarding `COc1ccc(=O)n(-c2ccc(N[C@H]3CC[C@H](Nc4cnc(C)c(C)n4)C3)nc2)c1` [Example 15, 6′-(((1S,3S)-3-((5,6-Dimethylpyrazin-2-yl)amino)cyclopentyl)amino)-5-methoxy-2H-[1,3′-bipyridin]-2-one], the IC50 was 0.118 µM at PCSK9, over 40 µM in experiment [1] and 0.874 µM in experiment [2].

On to `Cc1ncc(N[C@H]2CC[C@H](Nc3ccc(N4CC(=O)N(C)C4=O)cn3)C2)nc1C` [Example 16, 1-(6-(((1S,3S)-3-((5,6-Dimethylpyrazin-2-yl)amino)cyclopentyl)amino)pyridin-3-yl)-3-methylimidazolidine-2,4-dione], for which the IC50 was 0.103 µM on PCSK9, over 40 µM in experiment [1] and over 10 µM in experiment [2].

Consider `Cc1ncc(N[C@H]2CC[C@H](Nc3ccc(-n4cc(Cl)ccc4=O)cn3)C2)nc1C` [Example 17, 5-Chloro-6′-(((1S,3S)-3-((5,6-dimethylpyrazin-2-yl)amino)cyclopentyl)amino)-2H-[1,3′-bipyridin]-2-one], for which the figures for the IC50 (against PCSK9; in experiment [1]; in experiment [2]) were 0.053 µM, over 40 µM and over 10 µM, respectively.

With `O=c1cccnn1-c1ccc(N[C@H]2CC[C@H](Nc3cnc(Cl)cn3)C2)nc1` [Example 25, 2-(6-(((1S,3S)-3-((5-Chloropyrazin-2-yl)amino)cyclopentyl)amino)pyridin-3-yl)pyridazin-3 (2H)-one], the IC50 is 0.028 µM against PCSK9, over 40 µM in experiment [1] and over 10 µM in experiment [2].

`CN1C(=O)CN(c2ccc(N[C@H]3CC[C@H](Nc4cnc(Cl)cn4)C3)nc2)C1=O` [Example 26, 1-(6-(((1S,3S)-3-((5-Chloropyrazin-2-yl)amino)cyclopentyl)amino)pyridin-3-yl)-3-methylimidazolidine-2,4-dione]: the IC50 is 0.0243 µM against PCSK9, 14.3 µM in experiment [1] and over 10 µM in experiment [2].

Regarding `COc1ccc(=O)n(-c2ccc(N[C@H]3CC[C@H](Nc4cnc(Cl)cn4)C3)nc2)c1` [Example 28, 6′-(((1S,3S)-3-((5-Chloropyrazin-2-yl)amino)cyclopentyl)amino)-5-methoxy-2H-[1,3′-bipyridin]-2-one], the 50% inhibitory concentration (IC50) on PCSK9 was determined as 0.043 µM; in experiment [1] it was 25 µM; in experiment [2], 0.16 µM.

In the case of `O=c1ccc(Cl)cn1-c1ccc(N[C@H]2CC[C@H](Nc3cnc(Cl)cn3)C2)nc1` [Example 29, 5-Chloro-6′-(((1S,3S)-3-((5-chloropyrazin-2-yl)amino)cyclopentyl)amino)-2H-[1,3′-bipyridin]-2-one], the IC50 on PCSK9 is 0.014 µM; in experiment [1] it was 11.1 µM; in experiment [2] it was over 10 µM.

For `Cc1ccc(=O)n(-c2ccc(N[C@H]3CC[C@H](Nc4cnc(Cl)cn4)C3)nc2)c1` [Example 30, 6′-(((1S,3S)-3-((5-Chloropyrazin-2-yl)amino)cyclopentyl)amino)-5-methyl-2H-[1,3′-bipyridin]-2-one], the 50% inhibitory concentration (IC50) on PCSK9 was 0.027 µM; in experiment [1], 32.2 µM; in experiment [2] it was over 10 µM.

In the case of `COc1ccc(=O)n(-c2ccc(N[C@H]3CC[C@H](Nc4cnc(C)cn4)C3)nc2)c1` [Example 40, 5-Methoxy-6′-(((1S,3S)-3-((5-methylpyrazin-2-yl)amino)cyclopentyl)amino)-2H-[1,3′-bipyridin]-2-one], the IC50 on PCSK9 was 0.067 µM; in experiment [1], 35.5 µM; in experiment [2], 0.192 µM.

As for `Cc1cnc(N[C@H]2CC[C@H](Nc3ccc(N4C(=O)CN(C)C4=O)cn3)C2)cn1` [Example 41, 1-Methyl-3-(6-(((1S,3S)-3-((5-methylpyrazin-2-yl)amino)cyclopentyl)amino)pyridin-3-yl)imidazolidine-2,4-dione], the half-maximal inhibitory concentration (IC50) against PCSK9 was 0.057 µM; in experiment [1] it was over 40 µM; in experiment [2], over 10 µM.

As for `Cc1ncc(N[C@H]2CC[C@H](Nc3ccc(-n4cc(C#N)ccc4=O)cn3)C2)nc1C` [Example 48, 6′-(((1S,3S)-3-((5,6-Dimethylpyrazin-2-yl)amino)cyclopentyl)amino)-2-oxo-2H-[1,3′-bipyridine]-5-carbonitrile], the half-maximal inhibitory concentration (IC50) at PCSK9 was 0.113 µM; in experiment [1], 18.4 µM; in experiment [2], over 10 µM.

On to `Cc1cnc(N[C@H]2CC[C@H](Nc3ccc(-n4cc(C#N)ccc4=O)cn3)C2)cn1` [Example 49, 6′-(((1S,3S)-3-((5-Methylpyrazin-2-yl)amino)cyclopentyl)amino)-2-oxo-2H-[1,3′-bipyridine]-5-carbonitrile], for which the IC50 is 0.058 µM against PCSK9, over 40 µM in experiment [1] and over 10 µM in experiment [2].

`COc1ccc(=O)n(-c2ccc(N[C@H]3CC[C@H](Nc4cnc(C5CC5)cn4)C3)nc2)c1` [Example 107, 6′-(((1S,3S)-3-((5-Cyclopropylpyrazin-2-yl)amino)cyclopentyl)amino)-5-methoxy-2H-[1,3′-bipyridin]-2-one]: the half-maximal inhibitory concentration (IC50) on PCSK9 was determined as 0.105 µM; in experiment [2], 0.16 µM.

`Cc1cnc(N[C@H]2CC[C@H](Nc3ccc(-n4cccc(-c5cnn(C)c5)c4=O)cn3)C2)cn1` [Example 203, 3-(1-Methyl-1H-pyrazol-4-yl)-6′-(((1S,3S)-3-((5-methylpyrazin-2-yl)amino)cyclopentyl)amino)-2H-[1,3′-bipyridin]-2-one]: the concentration for half-maximal inhibition (IC50) in experiment [1] was over 40.1 µM; in experiment [2] it was over 10 µM.
